What was measured:
Test in all cases: relative viability (nuclei count vs DMSO), 5 days (fraction); higher = more cells survive
Sulindac + Tozasertib = compound: CC1=C(CC(=O)O)c2cc(F)ccc2/C1=C\c1ccc([S+](C)[O-])cc1 [Sulindac] + Cc1cc(Nc2cc(N3CCN(C)CC3)nc(Sc3ccc(NC(=O)C4CC4)cc3)n2)n[nH]1 [Tozasertib] (partner 0.1 µM)
Procedure, shortened: (§1)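 Relative viability divides the nuclei count in treated wells by that in vehicle wells. Lung cancer cell lines were seeded in 1536-well plates, dosed by pin tool the next day, and fixed and stained after 5 days in one step with final 0.05% Triton X-100, 1% formaldehyde and 1 ug/ml Hoechst. Dosing was a single drug or a fixed anchor-drug dose plus five library-drug doses (not always all listed) in √10 steps, and values are medians of duplicate plates imaged at 4×.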

Sulindac + Vorinostat = compound: CC1=C(CC(=O)O)c2cc(F)ccc2/C1=C\c1ccc([S+](C)[O-])cc1 [Sulindac] + O=C(CCCCCCC(=O)Nc1ccccc1)NO [Vorinostat] (partner 1 µM)
Procedure, shortened: as §1

[1] = compound: CN[C@@H]1C[C@H]2O[C@@](C)([C@@H]1OC)n1c3ccccc3c3c4c(c5c6ccccc6n2c5c31)C(=O)NC4 [Staurosporine] + C[C@]1(O)C[C@@H](c2nc(-c3ccc4ccc(-c5ccccc5)nc4c3)c3c(N)nccn32)C1 [Linsitinib] (partner 1 µM)
Procedure, shortened: as §1

[2] = compound: O=c1[nH]cc(F)c(=O)[nH]1 [5-Fluorouracil] + N=C(N)NC(=N)NCCc1ccccc1 [Phenformin] (partner 250 µM)
Procedure, shortened: as §1

| Cell Line | relative viability (Sulindac + Tozasertib; first compound 0.08 µM) | relative viability (Sulindac + Tozasertib; first compound 0.253 µM) | relative viability (Sulindac + Tozasertib; first compound 0.8 µM) | relative viability (Sulindac + Tozasertib; first compound 2.53 µM) | relative viability (Sulindac + Tozasertib; first compound 8 µM) | relative viability (Sulindac + Vorinostat; first compound 0.08 µM) | relative viability (Sulindac + Vorinostat; first compound 0.253 µM) | relative viability (Sulindac + Vorinostat; first compound 2.53 µM) | relative viability (Sulindac + Vorinostat; first compound 8 µM) | relative viability ([1]; first compound 0.005 µM) | relative viability ([1]; first compound 0.05 µM) | relative viability ([1]; first compound 0.1581 µM) | relative viability ([1]; first compound 0.5 µM) | relative viability ([2]; first compound 0.02 µM) | relative viability ([2]; first compound 0.2 µM) | relative viability ([2]; first compound 0.6325 µM) | relative viability ([2]; first compound 2 µM) | relative viability (Sulindac + Vorinostat; first compound 0.8 µM) | relative viability ([1]; first compound 0.01581 µM) |
| --- | --- | --- | --- | --- | --- | --- | --- | --- | --- | --- | --- | --- | --- | --- | --- | --- | --- | --- | --- |
| HCC-366 | 0.104 | 0.148 | 0.199 | 0.111 | 0.198 | 0.365 | 0.333 | 0.351 | 0.416 | 0.623 | 0.0843 | 0.0298 | 0.013 | 0.562 | 0.622 | 0.424 | 0.0966 |  |  |
| HCC-827 | 0.485 | 0.432 | 0.435 | 0.418 | 0.466 | 0.908 | 0.935 | 0.805 | 0.88 | 0.992 | 0.726 | 0.769 | 0.624 | 0.363 | 0.37 | 0.414 | 0.29 | 0.743 | 0.853 |
| HOP-62 | 0.409 | 0.41 |  | 0.386 | 0.426 | 0.826 | 0.88 | 0.598 | 0.796 | 1.07 | 0.117 | 0.111 | 0.108 | 0.617 | 0.728 | 0.636 | 0.644 | 0.526 | 0.604 |
| IA-LM |  |  |  |  |  | 1.07 | 1.21 | 0.913 | 0.981 |  | 0.16 | 0.128 | 0.07 |  |  |  |  |  | 0.271 |
| LC-2-ad | 0.382 | 0.451 | 0.374 | 0.391 | 0.46 | 0.833 | 0.843 | 0.693 | 0.821 | 0.817 | 0.192 | 0.0865 | 0.0668 | 0.554 | 0.512 | 0.407 | 0.385 | 0.669 | 0.434 |
| LCLC-97TM1 | 0.231 | 0.289 | 0.217 | 0.163 | 0.247 | 1.01 | 0.86 | 0.729 | 0.94 | 0.237 | 0.163 | 0.207 | 0.144 | 0.386 | 0.472 | 0.443 | 0.407 | 0.453 | 0.163 |
| LCLC-103H | 0.439 | 0.512 | 0.508 | 0.47 | 0.48 | 0.872 | 0.773 | 0.72 | 0.799 | 1.25 | 0.352 | 0.206 | 0.212 | 0.339 | 0.327 | 0.258 | 0.249 | 0.729 | 0.717 |
| LK-2 | 0.186 | 0.178 |  |  | 0.189 | 0.292 | 0.258 | 0.289 | 0.228 | 0.698 | 0.753 | 0.473 | 0.154 | 0.597 | 0.582 | 0.57 | 0.381 | 0.234 | 0.506 |
| LOU-NH91 | 0.634 | 0.662 | 0.636 | 0.636 | 0.744 | 0.965 | 0.97 | 0.952 | 1.1 | 0.979 | 0.63 | 0.365 | 0.274 | 0.731 | 0.858 | 0.589 | 0.298 | 0.716 | 0.744 |
| LU99A | 0.265 | 0.266 | 0.285 | 0.252 | 0.286 | 0.499 | 0.465 | 0.428 | 0.551 | 0.441 | 0.201 | 0.182 | 0.14 | 0.905 | 0.786 | 0.738 | 0.586 | 0.454 | 0.212 |
| LXF-289 | 0.176 | 0.167 | 0.195 | 0.176 | 0.205 | 0.867 | 0.797 | 0.83 | 0.797 | 0.846 | 0.203 | 0.1 | 0.0809 | 0.507 | 0.428 | 0.332 | 0.297 | 0.636 |  |
| NCI-H23 | 0.292 |  | 0.323 | 0.354 | 0.535 | 0.577 | 0.684 | 0.38 | 0.702 | 0.419 | 0.213 | 0.219 | 0.155 | 0.686 | 0.897 | 0.438 | 0.298 | 0.607 | 0.234 |
| NCI-H522 | 0.676 | 0.643 | 0.541 | 0.502 | 0.575 | 0.673 | 0.829 | 0.906 | 0.964 |  |  |  |  | 0.584 | 0.637 | 0.682 | 0.678 | 0.747 |  |
| NCI-H1299 |  |  |  |  |  |  |  |  |  | 0.785 | 0.206 | 0.143 | 0.113 |  |  |  |  |  | 0.305 |
| NCI-H1563 |  |  |  |  |  |  |  |  |  | 0.752 | 0.733 | 0.654 | 0.478 | 0.713 | 0.611 | 0.641 | 0.646 |  | 0.611 |
| NCI-H1623 | 0.392 | 0.458 | 0.421 | 0.418 | 0.429 |  |  |  |  |  |  |  |  | 0.45 | 0.582 | 0.364 | 0.335 |  |  |
| NCI-H1648 | 0.397 | 0.482 | 0.345 | 0.415 | 0.389 | 0.44 | 0.318 | 0.402 | 0.512 |  |  |  |  |  |  |  |  |  |  |
| NCI-H1650 | 0.456 | 0.381 |  | 0.287 | 0.426 | 0.586 | 0.54 | 0.486 | 0.557 |  |  |  |  | 0.396 | 0.444 | 0.273 | 0.279 | 0.605 |  |
| NCI-H1703 |  |  |  |  |  |  |  |  |  | 0.561 | 0.17 | 0.146 | 0.083 |  |  |  |  |  | 0.291 |
| NCI-H1792 |  |  |  |  |  |  |  |  |  | 0.488 | 0.105 | 0.114 | 0.0997 | 0.199 | 0.365 | 0.177 | 0.122 |  | 0.287 |
| NCI-H2170 | 0.791 | 0.928 | 0.797 | 0.675 | 0.719 | 0.937 | 0.741 | 0.833 | 0.924 |  |  |  |  | 0.393 | 0.42 | 0.341 | 0.293 | 0.69 |  |
| NCI-H2342 | 0.447 | 0.492 | 0.513 | 0.397 | 0.583 | 0.791 | 0.774 | 0.669 | 0.791 |  |  |  |  | 0.619 | 0.72 | 0.559 | 0.635 | 0.619 |  |
| SW 900 |  | 0.516 |  | 0.462 | 0.585 | 0.553 | 0.47 |  | 0.578 |  |  |  |  | 0.505 | 0.618 | 0.498 | 0.465 |  |  |
